# Tests used:
# [1] = tested on: mice; experiment: Forced Swim Test on mice; type: in vivo
# [2] = tested on: mice; experiment: Cook's Pole Climbing Test on mice; type: in vivo
# [3] = tested on: healthy young adults; experiment: Go/No Go Attention and Inhibitory Control Test; type: in vivo; conditions: 200 mg paraxanthine; 5 g BHB; 200 mg paraxanthine and 5 g BHB; baseline and 1-6 hours after supplementation; FIG. 4
# Source text: Attention and inhibitory control can be measured using a Go/No Go Test, which is used to measure a participant's capacity for sustained attention and response control. The Go/No Go Test is routinely used in the field, and will be familiar to those of skill in the art. In the Go/No Go Test, participants watch a 2×2 array of squares, and then there is a successive presentation of letters (e.g., either P or R) and the participant responds to a target letter by pressing the corresponding button on a keyboard. The single letter (P or R) is presented in one of the 4 squares for 500 milliseconds, with 1500 milliseconds between subsequent stimuli. For the P-Go condition, participants are asked to press the P key in response to the letter P, and abstain from responding to the letter R. For the R-reversal condition, the participants are asked to respond to the letter R, and abstain when seeing the letter P. Mean response time, as well as percentage of correct answers are recorded. When running each such tests, subjects are given either paraxanthine+BHB, paraxanthine alone, BHB alone, or a placebo. The dosage amounts are 200 mg paraxanthine and 5 g of BHB, 200 mg of paraxanthine alone, 5 g of BHB alone, or a placebo. The testing is conducted under double blind, placebo controlled conditions. […]
# [4] = tested on: healthy young adults; experiment: Vigilance Task Test; type: in vivo; conditions: 200 mg paraxanthine; 5 g BHB; 200 mg paraxanthine and 5 g BHB; baseline and 1-6 hours after supplementation; FIG. 6
# Source text: The Vigilance Task Test is another test routinely used in the field, and is used to evaluate a participants ability to sustain attention. The Vigilance Task Test is a sustained attention, reaction timed task test that measures the speed with which participants respond to a visual stimulus. The subjects respond to visual stimuli (e.g., a red dot) by pressing a key as soon as it appears on the computer screen. The light turns on at random, e.g., roughly every couple of seconds or so during the test. The speed of response is measured. Due to the random nature of the test, there is no learning effect. Mean response time is recorded. When running each such tests, subjects are given either paraxanthine+BHB, paraxanthine alone, BHB alone, or a placebo. The dosage amounts are 200 mg paraxanthine and 5 g of BHB, 200 mg of paraxanthine alone, 5 g of BHB alone, or a placebo. The testing is conducted under double blind, placebo controlled conditions. The subjects include 13 healthy young adults (10 male, 3 female), aged 24±5 years; height 170.0±11.8 cm; weight 72.9±19.3 kg.
# [5] = Age-related cognitive decline study; type: in vivo; conditions: BHB 5 g
# [6] = Clinical Stroop Test study; type: in vivo; conditions: paraxanthine 200 mg; BHB 5 g; paraxanthine 200 mg with BHB 5 g; 6-week period; FIGS. 15A-15C
# Source text: The Stroop effect refers to the delay in reaction time between congruent and incongruent stimuli. […] When paired with paraxanthine, the combination provides a synergistic improvement in mental acuity.
# [7] = Clinical Resting Energy Expenditure study; type: in vivo; conditions: paraxanthine 100 mg or 300 mg; BHB 5 g; paraxanthine 100 mg or 300 mg with BHB 5 g; 180-day period
# Procedure: FIGS. 16A-16B show expected results of a clinical Resting Energy Expenditure study, where participants are supplemented with paraxanthine alone (100 mg or 300 mg), BHB alone (5 g), or paraxanthine (100 mg or 300 mg) in combination with BHB (5 g) over a 180-day period. […] Because of the presence of the BHB ketone body component, such increased metabolic rate is also more likely to occur within the context of ketogenic state, where fat is principally used as the caloric energy source for the increased resting metabolic rate.
# [8] = cited from earlier work
# [9] = cited from earlier work; for Total plasma clearance: in vivo; for half-life: elimination half-life, FIG. 3
# [10] = tested on: dopaminergic neurons; conditions: cited from earlier work
# [11] = elevated doses; cited from earlier work
# [12] = metabolite of caffeine, FIG. 2; cited from earlier work
compound,measurement,setting,value
C[N+](C)(C)CCOP(=O)([O-])OC[C@H](O)CO [Alpha-GPC],Duration of Immobility,[1]; Alpha-GPC 200 mg,9.38 min
same,Duration of mobility/active swimming,[1]; Alpha-GPC 200 mg,20.63 min
same,No. of Climbing,[2]; Alpha-GPC 200 mg,5.5
"CC(O)CC(=O)O (stereo not drawn) [BHB, beta-hydroxybutyrate]",Go/No Go Test correct responses,[3],decrease in correct answers over time
same,Vigilance Task Test average response time,[4],significantly slower reaction times
same,Acetylcholine,[5],58 U/mL
same,BDNF,[5],775 pg/mL
same,Catalase,[5],28 U/mL
same,Dopamine,[5],475 ng/L
same,Escape Latency,[5],50 s
same,Glutathione,[5],22 µg/mL
same,Duration of Immobility,[1]; BHB 5 g,9.5 min
same,Duration of mobility/active swimming,[1]; BHB 5 g,20 min
same,No. of Climbing,[2]; BHB 5 g,6
same,Stroop test number of correct answers,[6],little if any benefit
same,Stroop test reaction speed,[6],little if any benefit
same,resting energy expenditure,[7],only a minor benefit
"CCNC(=O)CC[C@H](N)C(=O)O [L-Theanine, L-theanine]",Duration of Immobility,[1]; L-Theanine 50 mg,8.74 min
same,Duration of mobility/active swimming,[1]; L-Theanine 50 mg,21.26 min
same,No. of Climbing,[2]; L-Theanine 50 mg,4.38
"NCCS(=O)(=O)O [Taurine, taurine]",Duration of Immobility,[1]; Taurine 500 mg,9.61 min
same,Duration of mobility/active swimming,[1]; Taurine 500 mg,20.39 min
same,No. of Climbing,[2]; Taurine 500 mg,6.5
CC(O)CC(=O)O (stereo not drawn) [beta-hydroxybutyric acid],pKa,[8],4.70
Cn1c(=O)c2c(ncn2C)n(C)c1=O [caffeine],Total plasma clearance,[9],2.07 mL/min/kg
same,protection against neurodegeneration and the loss of synaptic function,[10],marginal protection
NC(=O)C[S+]([O-])C(c1ccccc1)c1ccccc1 (centres unmarked) [modafinil],hypothermia and reduced locomotor activity,[11],induce hypothermia and reduced locomotor activity
Cn1cnc2c1c(=O)[nH]c(=O)n2C [theobromine],half-life,[9],7.2 h
same,Total plasma clearance,[9],1.2 mL/min/kg
Cn1c(=O)c2[nH]cnc2n(C)c1=O [theophylline],half-life,[9],6.2 h
same,Total plasma clearance,[9],0.93 mL/min/kg
same,share of the methylxanthine metabolic by-products,[12],4%
